Test results taken from patent US20070031493A1, “Pharmaceutical compositions” (priority 1996, published 2007).

Experiments:
Assay type in all cases: physicochemical
[1] = Drug release from non-eroding high molecular weight xanthane matrix tablet, USP II apparatus; settings: non-eroding matrix of xanthane (195 mg), 5 mg drug; pH 6.8, +37° C., paddle 75 rpm; FIG. 2
Protocol: (§1) In the following Examples 1 to 3, drug release from various types of tablets was determined in pH 6.8, +37° C., by use of an USP II apparatus at a paddle stirring rate of 75 rpm. All tablet formulations were manufactured by conventional techniques and, for each example, in an identical manner except for the drug constituent.

[2] = Drug release from eroding paraffin matrix tablet and immediate release hard gelatin capsule, USP II apparatus; settings: 20 mg drug, pH 6.8, +37° C., paddle 75 rpm, FIG. 3
Protocol: as §1

[3] = Drug release and tablet erosion, eroding polyethyleneoxide (PEO) matrix tablet, USP II apparatus; settings: eroding matrix of PEO 8,000,000, 10 mg drug; pH 6.8, +37° C., paddle 75 rpm; FIG. 1
Protocol: In the following Examples 1 to 3, drug release from various types of tablets was determined in pH 6.8, +37° C., by use of an USP II apparatus at a paddle stirring rate of 75 rpm. All tablet formulations were manufactured by conventional techniques and, for each example, in an identical manner except for the drug constituent. […] Tablet erosion was determined by weighing after removal of the tablets from the dissolution apparatus and drying to constant weight.

[4] = Transport over a diffusion controlling polymeric membrane, two-compartment cell; settings: pH 6.8, +37° C., steady state, FIG. 4
Protocol: The release rate was studied at different initial concentrations of the active drug. The solutions (pH 6.8) in the chambers were well stirred and thermostated at +37° C. From the cumulative amount released versus time, the release rates (amount released/time) were determined as the slopes of the linear parts of the curves obtained at steady state. No accumulation in the membrane was found of any of the drugs. The results are presented in FIG. 4 as the release rates versus the concentrations used in the experiments.

Water solubility = experiment: Water solubility

SMILES | drug release from sustained release tablet (comparison) [1] | drug release from sustained release tablet (comparison) [2] | drug release compared with tablet erosion [3] | drug release from sustained release tablet (comparison) [3] | release rate over membrane versus concentration in donor chamber ([4]; different initial concentrations) | release rate over membrane (comparison) [4] | water solubility (Water solubility) [mg/mL] | solubility (Water solubility; water) [mg/mL]
CC(C)n1c(/C=C/[C@@H](O)C[C@@H](O)CC(=O)O)c(-c2ccc(F)cc2)c2ccccc21 (relative stereo) [fluvastatin, R*,S*-(E)-(±)-7-[3-(4-fluorophenyl)-1-(1-methyl-ethyl)-1H-indol-2-yl]-3,5-dihydroxy-6-heptenoic acid] | slower than the release of both diclofenac and methylparaben | slower than the release of diclofenac | almost identical | slower than the release of methylparaben | independent of the concentration of fluvastatin in the donor compartment | much slower compared to diclofenac | – | –
CC(C)n1c(/C=C/C(O)CC(O)CC(=O)O)c(-c2ccc(F)cc2)c2ccccc21 (stereo not drawn) [fluvastatin sodium] | – | – | – | – | – | – | > 50 | > 50
COC(=O)c1ccc(O)cc1 [methylparaben, methyl p-hydroxybenzoate] | – | – | faster than the tablet erosion | – | – | – | – | –
